# Results published in patent EP0734445B1, “CHIMERIC GENES AND METHODS FOR INCREASING THE LYSINE CONTENT OF THE SEEDS OF CORN, SOYBEAN AND RAPESEED PLANTS” (priority 1993, dated 1995).
# Tests used:
# Corynebacterium DHDPS = target: T1, Corynebacterium DHDPS (Corynebacterium glutamicum, UniProt P19808, S2A); assay: DHDPS enzyme activity assay; format: biochemical; conditions: lysine at 70 mM in the enzyme reaction mix
# T1 construct: An 870 bp Nco I-EcoR I fragment from pFS766 containing the entire cordapA coding region; made in house; host or cells: E. coli BL21(DE3)/pFS766, supernatant of uninduced extract
# T1 sequence (P19808 whole entry S2A, the tested form may be a part): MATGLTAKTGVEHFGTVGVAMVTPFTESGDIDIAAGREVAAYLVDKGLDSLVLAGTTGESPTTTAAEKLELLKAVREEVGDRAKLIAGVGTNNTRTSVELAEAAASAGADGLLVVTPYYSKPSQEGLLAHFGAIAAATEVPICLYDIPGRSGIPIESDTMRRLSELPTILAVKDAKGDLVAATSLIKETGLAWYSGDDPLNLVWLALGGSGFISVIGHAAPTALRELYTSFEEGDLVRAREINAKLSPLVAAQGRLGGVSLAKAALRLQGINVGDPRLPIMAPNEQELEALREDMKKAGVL
# Method: (§1) DHDPS enzyme activity was assayed as follows: Assay mix (for 10 X 1.0 mL assay tubes or 90 X 0.25 mL for microtiter dish); made fresh, just before use:
# (§2) Color allowed to develop for 30-60 min. Precipitate spun down in eppendorf centrifuge. OD540 vs 0 min read as blank. For MicroAssay, aliquot 0.2 mL into microtiter well and read at OD530.
# (§3) The specific activity of E. coli DHDPS in the supernatant fraction of induced extracts was about 50 OD540 units per minute per milligram protein in a 1.0 mL assay. E. coli DHDPS was sensitive to the presence of L-lysine in the assay. Fifty percent inhibition was found at a concentration of about 0.5 mM. For Corynebacterium DHDPS, the activity was measured in the supernatant fraction of uninduced extracts, rather than induced extracts. Enzyme activity was about 4 OD530 units per minute per milligram protein in a 0.25 mL assay.
# E. coli DHDPS = target: T2, E. coli DHDPS (Escherichia coli, UniProt P0A6L2, F2V); assay: DHDPS enzyme activity assay; format: biochemical
# T2 construct: An 880 bp Nco I-Kpn I fragment from pBT443 containing the entire ecodapA coding region; made in house; host or cells: E. coli BL21(DE3)/pBT442, supernatant of IPTG-induced extract
# T2 sequence (P0A6L2 whole entry F2V, the tested form may be a part): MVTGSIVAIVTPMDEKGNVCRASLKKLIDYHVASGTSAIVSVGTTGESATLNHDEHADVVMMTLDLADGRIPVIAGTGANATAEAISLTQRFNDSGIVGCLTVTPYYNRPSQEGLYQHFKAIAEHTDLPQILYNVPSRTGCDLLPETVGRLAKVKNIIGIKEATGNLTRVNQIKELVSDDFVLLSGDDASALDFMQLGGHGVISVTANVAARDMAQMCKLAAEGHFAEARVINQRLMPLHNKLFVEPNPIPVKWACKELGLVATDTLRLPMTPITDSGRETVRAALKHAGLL
# Method: as §1, §2, §3
# wild type AKIII = target: T3, wild type AKIII (Escherichia coli, UniProt P08660); assay: Inhibition of AKIII by lysine; format: biochemical, E. coli
# T3 construct: made in house; host or cells: E. coli (pBT436 in AK-deficient strain Gif106M1)
# T3 sequence (P08660 2-449): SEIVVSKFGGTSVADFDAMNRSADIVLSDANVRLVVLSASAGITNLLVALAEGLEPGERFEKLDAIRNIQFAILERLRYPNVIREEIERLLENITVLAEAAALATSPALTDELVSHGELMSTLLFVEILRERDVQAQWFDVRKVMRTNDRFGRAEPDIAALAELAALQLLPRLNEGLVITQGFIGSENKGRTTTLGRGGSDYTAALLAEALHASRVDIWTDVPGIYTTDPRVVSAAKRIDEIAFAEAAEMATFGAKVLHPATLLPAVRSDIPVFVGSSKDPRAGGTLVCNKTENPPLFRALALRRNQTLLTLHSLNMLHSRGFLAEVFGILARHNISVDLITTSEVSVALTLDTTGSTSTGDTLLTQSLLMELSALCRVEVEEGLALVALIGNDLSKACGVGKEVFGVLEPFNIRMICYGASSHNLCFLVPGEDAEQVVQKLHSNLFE
# Method: (§4) Single colonies of Gif106M1 transformed with pBT436 were picked and resuspended in 200 µL of a mixture of 100 µL 1% lysine plus 100 µL of M9 media. The entire cell suspension containing 10^7-10^8 cells was spread on a petri dish containing M9 media supplemented with the arginine, isoleucine, and ampicillin. Sixteen petri dishes were thus prepared. From 1 to 20 colonies appeared on 11 of the 16 petri dishes. One or two (if available) colonies were picked and retested for lysine resistance and from this nine lysine-resistant clones were obtained. Plasmid DNA was prepared from eight of these and re-transformed into Gif106M1 to determine whether the lysine resistance determinant was plasmid-borne. Six of the eight plasmid DNAs yielded lysine-resistant colonies. Three of these six carried lysC genes encoding AKIII that was uninhibited by 15mM lysine, whereas wild type AKIII is 50% inhibited by 0.3-0.4 mM lysine and >90% inhibited by 1 mM lysine (see Example 2 for details).
# [1] = target: T4, AKIII encoded by mutant lysC genes (Escherichia coli, UniProt P08660, T352I); assay: Inhibition of AKIII by lysine (mutant lysC genes); format: biochemical, E. coli; conditions: 15mM lysine; three of six mutant lysC plasmids
# T4 construct: made in house; host or cells: E. coli (mutant derivatives of pBT436 selected in Gif106M1; the extract used is not described)
# T4 sequence (P08660 whole entry T352I): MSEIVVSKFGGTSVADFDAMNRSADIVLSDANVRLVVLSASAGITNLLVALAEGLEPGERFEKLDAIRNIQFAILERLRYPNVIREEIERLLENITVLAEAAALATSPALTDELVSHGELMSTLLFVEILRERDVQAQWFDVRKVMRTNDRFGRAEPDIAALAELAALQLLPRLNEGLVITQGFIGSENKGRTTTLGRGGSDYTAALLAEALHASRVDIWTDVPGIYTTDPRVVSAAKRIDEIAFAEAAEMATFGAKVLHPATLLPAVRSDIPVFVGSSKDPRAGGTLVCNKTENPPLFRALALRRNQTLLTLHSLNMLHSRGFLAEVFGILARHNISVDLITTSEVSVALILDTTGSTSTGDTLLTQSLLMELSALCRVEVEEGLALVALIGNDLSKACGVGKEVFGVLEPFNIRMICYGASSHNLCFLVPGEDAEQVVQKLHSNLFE
# Method: as §4
# The sequences of the three mutant lysC genes that encoded lysine-insensitive AK each differed from the wild type sequence by a single nucleotide, resulting in a single amino acid substitution in the protein. […] Thus, either of these single amino acid substitutions is sufficient to render the AKIII enzyme insensitive to lysine inhibition.
# [2] = test system: Gif106M1 transformed with pBT436; assay: Growth inhibition in M9 media; format: cell-based, E. coli; conditions: M9 media with arginine, isoleucine, ampicillin; reversed by threonine plus methionine
# Method: Addition of lysine (or diaminopimelate which is readily converted to lysine in vivo) at a concentration of approximately 0.2 mM to the growth medium inhibits the growth of Gif106M1 transformed with pBT436. M9 media [see Sambrook et al. (1989) Molecular Cloning: a Laboratory Manual, Cold Spring Harbor Laboratory Press] supplemented with the arginine and isoleucine, required for Gif106M1 growth, and ampicillin, to maintain selection for the pBT436 plasmid, was used. This inhibition is reversed by addition of threonine plus methionine to the growth media. […] This property of pBT436-transformed Gif106M1 was used to select for mutations in lysC that encoded lysine-insensitive AKIII.
# DE126 = assay: Growth inhibition in synthetic medium; format: cell-based, E. coli
# Source text: To select clones that carried the LKR gene a specially designed E. coli host, DE126 was constructed. Construction of DE126 occurred in several stages. • (1) A generalized transducing stock of coliphage Plvir was produced by infection of a culture of TST1 [F^-, araD139, delta (argF-lac) 205, flb5301, ptsF25, relA1, rpsL150, malE52::Tn10, deoC1, λ^-] (E. coli Genetic Stock Center #6137) using a standard method (for Methods see J. Miller, Experiments in Molecular Genetics). • (2) This phage stock was used as a donor in a transductional cross (for Method see J. Miller, Experiments in Molecular Genetics) with strain GIF106M1 [F^-, arg-, ilvA296, lysC1001, thrA1101, metL1000, λ^-, rpsL9, malT1, xyl-7, mtl-2, thi1(?), supE44(?)] (E. coli Genetic Stock Center #5074) as the recipient. Recombinants were selected on rich medium [L supplemented with DAP] containing the antibiotic tetracycline. […] The genes malE and lysC are separated by less than 0.5 minutes, well within cotransduction distance. • (3) 200 tetracycline-resistant transductants were thoroughly phenotyped; appropriate fermentation and nutritional traits were scored. […] The phenotype of one clone was determined to be Ilv^+, Arg^-, TetR, Lysine-sensitive, male specific phage (MS2)-sensitive, consistent with the simple transfer of F'16 from AB1528 to DE125. […]
Compound,inhibition by L-lysine (Corynebacterium DHDPS),inhibition by L-lysine (Corynebacterium DHDPS; listed as lysine),IC50 (E. coli DHDPS),"fold less sensitive to inhibition by lysine than a typical plant enzyme, e.g., wheat DHDPS (E. coli DHDPS)",inhibited (wild type AKIII; 1 mM lysine),"IC50 (wild type AKIII; read-out: 50% inhibited, lysine concentration)",inhibition by lysine [1],concentration in the growth medium that inhibits growth [2],concentration of L-lysine that inhibits growth (DE126)
NCCCC[C@H](N)C(=O)O [L-lysine],not inhibited at all,unaffected,~500 µM,at least 20 fold,> 90%,300 to 400 µM,uninhibited,approximately 0.2 mM,20 µg/mL
NC(CCCC(N)C(=O)O)C(=O)O (stereo not shown) [diaminopimelate],–,–,–,–,–,–,–,approximately 0.2 mM,–
